Patent publication US4356183A, “Antihypertensive 4-thiazolidinecarboxylic acids (pyridyl derivatives)” (Santen Pharmaceutical Co., Ltd., priority 1978, dated 1982)

Key:
[1] = system: contractile response to bradykinin (isolated guinea pig ileum); assay: Augmentation of contractile response of isolated guinea pig ileum to bradykinin; type: cell-based; conditions: Cavia porcellus, bradykinin 0.005 μg/ml; compound added 5 min before; 30° C.; read-out: Bradykinin AC50 (50% augmentation of bradykinin activity inducing the contraction of guinea pig ileum)
[2] = system: contractile response of isolated guinea pig ileum to angiotensin I; assay: Inhibition of contractile response of isolated guinea pig ileum to angiotensin I; type: cell-based; conditions: Cavia porcellus, angiotensin I 0.1 μg/ml; compound added 5 min before; 30° C.; read-out: Angiotensin I IC50 (50% inhibition of angiotensin I activity inducing the contraction of guinea pig ileum)
[3] = system: pressor response to angiotensin I; assay: Inhibition of pressor response to angiotensin I in rats after oral administration; type: in vivo, rat (male Wistar); conditions: angiotensin I 300 ng/kg i.v.; for Inhibition (%) of pressor response to angiotensin I, 5 min / Inhibition (%) of pressor response to angiotensin I, 15 min / Inhibition (%) of pressor response to angiotensin I, 25 min / Inhibition (%) of pressor response to angiotensin I, 35 min / Inhibition (%) of pressor response to angiotensin I, 45 min / Inhibition (%) of pressor response to angiotensin I, 55 min / Inhibition (%) of pressor response to angiotensin I, 65 min / Inhibition (%) of pressor response to angiotensin I, 75 min / Inhibition (%) of pressor response to angiotensin I, 85 min: dose: 3, 45, 49 1.8 mg/kg, 4, 46 1.3, 50 1.4, 76 2.0, 77 1.5; for Inhibition (%) of pressor response to angiotensin I, 95 min: dose: 45, 49 1.8 mg/kg, 4, 46 1.3, 50 1.4, 76 2.0, 77 1.5; for Inhibition (%) of pressor response to angiotensin I, 105 min / Inhibition (%) of pressor response to angiotensin I, 115 min: dose: 45, 49 1.8 mg/kg, 46 1.3, 50 1.4, 76 2.0, 77 1.5

Compound	AC50 [1]	IC50 [2]	Inhibition (%) of pressor response to angiotensin I, 5 min [3]	Inhibition (%) of pressor response to angiotensin I, 15 min [3]	Inhibition (%) of pressor response to angiotensin I, 25 min [3]	Inhibition (%) of pressor response to angiotensin I, 35 min [3]	Inhibition (%) of pressor response to angiotensin I, 45 min [3]	Inhibition (%) of pressor response to angiotensin I, 55 min [3]	Inhibition (%) of pressor response to angiotensin I, 65 min [3]	Inhibition (%) of pressor response to angiotensin I, 75 min [3]	Inhibition (%) of pressor response to angiotensin I, 85 min [3]	Inhibition (%) of pressor response to angiotensin I, 95 min [3]	Inhibition (%) of pressor response to angiotensin I, 105 min [3]	Inhibition (%) of pressor response to angiotensin I, 115 min [3]
COc1ccc(C2SC[C@@H](C(=O)O)N2C(=O)[C@H](C)CS)c(O)c1 (stereo partly shown) [Compound 77]	1.3 nM	120 nM	35.0%	45.0%	54.2%	50.8%	57.2%	49.2%	47.8%	34.8%	31.7%	24.2%	18.7%	6.7%
C[C@H](CS)C(=O)N1C(c2ccccc2O)SC[C@H]1C(=O)O (stereo partly shown) [Compound 50]	0.7 nM	56 nM	11.1%	22.7%	37.6%	43.9%	52.6%	31.7%	28.1%	30.5%	24.3%	21.1%	21.7%	21.5%
